One data set has as its system CH3/HeJ mice. Description: Tail Suspension Test (Acute). The following applies: for ED50: Mus musculus, po, 7 min; for Immobility Emax % of C / Mobility Emax % of C: 7-min session. Format: in vivo, mouse. As for the experimental part:
In the tail suspension test (TST) for evaluating compounds for anti-depressant activity, mice are suspended by their tails to a metal or plastic rod using clip or scotch tape. The test is usually quite short, 5-7 min, and the amount of time the mice spend immobile is recorded either manually or with an automated device. Agents which have antidepressant activity, decrease the duration of immobility of mice in this test.
The basic apparatus for the tail suspension assay consisted of a yellow plastic chamber (91×45×10 cm) divided for four arenas 25, 20, 20 and 25 cm wide separated by yellow plastic walls 0.75 cm thick. Mice were suspended by their tails using a rubber clip (7 cm long) attached to the plastic rod that was placed on the top of a testing chamber half way through its deep dimension. Each experimental session was videotaped and analyzed for four animals in the real time by computer software (“Depression Scan” Clever Sys Inc.). The computer justification of immobility was calibrated with the use of animals dosed with lorazepam while justification of movement was calibrated with the high dose of desipramine treated animals. […] The settings were adjusted separately for dark (CH3/HeJ and C57BI/6J strains) and white mice (Balb/cJ and A/J strains). A yellow background was used for dark mice and a blue background was used to record movements of white mice.
The ability of a test compound to decrease the duration of immobility, or increase mobility was measured using the TST procedure described above.
Data were analyzed using GraphPad Prism software (GraphPad Software, Inc. San Diego, Calif.). For the comparison of the effect of different doses for various drugs on immobility in the TST one-way analyses of variance (ANOVA) were used followed by Dunnett's multiple comparison test. […] The ED50 and Emax values were compared using two-way ANOVA and Bonferroni post-hoc test.
Positive controls included duloxetine (DLX), venlafaxine (VLX) and desipramine (DMI) which were dissolved in 0.5% methylcellulose and lorazepam (LOR) which was suspended in 0.5% of methylcellulose in water by sonication. All drugs and vehicles were administered orally (p.o.) by gavage in a volume of 10 mL/kg.
The mice were ordered 5 weeks old and at the beginning of experiment their weight was 20±5 g. Animals were housed in groups of four in plastic cages at an ambient temperature of 21° C. to 23° C. with an automated 12/12 hours light/dark cycle and access to water and a commercial rodent food ad libitum.
Each experiment consisted of seven treatment groups with four animals per group. A total of 28 animals per experiment were used. Every two consecutive experiments (1 & 2, 3 & 4, 5 & 6 and 7 & 8) were exact replicas of each other. […] One treatment group of four animals in each experiment was a vehicle treated group. In addition to the vehicle treated group, the effects of DMI at 6 mg/kg, 12 mg/kg, 30 mg/kg, 60 mg/kg and 120 mg/kg and LOR at 5 mg/kg were tested in experiments 1 and 2. […] In experiments 5 and 6 the effects of DLX at 6 mg/kg, 12 mg/kg, 30 mg/kg, 60 mg/kg, 120 mg/kg and LOR at 5 mg/kg were tested.

The next data set concerns Wistar rats. Description: Chronic Mild Stress Model (Chronic). In kind it is in vivo, rat. An excerpt: In the chronic mild stress (CMS) model rats subjected to a variety of mild stressors for a prolonged period of time show, among other behavioral, biochemical and physiological impairments, a substantial decrease in their responsiveness to rewarding stimuli. This deficit is usually monitored by a decrease in the consumption of the 1% sucrose solution, but can also be seen in other tests, such as place preference conditioning or intracranial self-stimulation. Since the subsensitivity to reward appears to reflect anhedonia (inability to experience pleasure), which is a core symptom of major depressive disorders, the CMS procedure may serve as a suitable research tool in studies into the mechanisms of antidepressant action.
Male Wistar rats were brought into the laboratory two months before the start of the experiment. Except as described below, the animals were singly housed with food and water freely available, and were maintained on a 12-h light/dark and in a constant temperature (22±2° C.) and humidity (50±5%) conditions.
The animals were first trained to consume a 1% sucrose solution; training consisted of eight 1 h baseline tests in which sucrose was presented, in the home cage, following 14 h food and water deprivation; the sucrose intake was measured by weighing pre-weighed bottles containing the sucrose solution, at the end of the test. Subsequently, sucrose consumption was monitored, under similar conditions, at weekly intervals throughout the whole experiment.
On the basis of their sucrose intakes in the final baseline test, the animals were divided into two matched groups. One group of animals was subjected to the chronic mild stress procedure for a period of 7 consecutive weeks. […]
All results obtained in this study were analyzed by multiple analyses of variance with three between-subjects factors (stress/control, drug treatments and successive sucrose tests). […]

Data set [1] deals with amygdala kindled seizures. Description: Amygdala Kindling Assay (Kindling Prevention). In kind it is in vivo, rat.
Data set [2] relates to LTG-resistant amygdala kindled seizures. Kind of data set: Lamotrigine Resistant Amygdala Kindled Rat Model (Interruption of Kindled State). Format: in vivo. The following applies: 75 mg/kg i.p. As to the method: Amygdala kindling is less severe than hippocampal kindling, such that many AEDs are effective against amygdala kindled seizures, but are ineffective against hippocampal kindled seizures. […] Fifteen minutes after the last stimulation, a single dose of vehicle or test compound was administered i.p. After 15 min, each rat was then stimulated every 30 min for 3 to 4 h. After each stimulation, individual seizure scores and after-discharge durations were recorded. The group mean±SEM was calculated for each parameter.

The values that follow come from patent US8937096B2, “Use of benzo-fused heterocyle sulfamide derivatives for the treatment of mania and bipolar disorder” (priority 2005, dated 2015).

Read-outs that look alike come from different tables or passages of the source.

For the compound `COc1ccc(C(CN(C)C)C2(O)CCCCC2)cc1` (stereo not shown) [Venlafaxine, venlafaxine, reference compound], the ED50 was found to be 25 mg/kg in the data set on CH3/HeJ mice (read-out: Immobility ED50) and 21.1 mg/kg in the data set with CH3/HeJ mice (read-out: Mobility ED50). For the same compound, the “Immobility Emax % of C” value with CH3/HeJ mice (p.o., CH3/HeJ mice) was 63.7 % of C. The “Mobility Emax % of C” value in the data set on CH3/HeJ mice (p.o., CH3/HeJ mice) is listed as 412.6 % of C. For the same compound, the “treatment time after which increases in sucrose intake in stressed animals reached statistical significance vs Week 0” value with Wistar rats (stressed animals, i.p. once daily) is reported as “four weeks”.
For `NS(=O)(=O)NC[C@H]1COc2cc(Cl)ccc2O1` [Compound #8, (2S)-(−)-N-(6-Chloro-2,3-dihydro-benzo[1,4]dioxin-2-ylmethyl)-sulfamide], the acquisition of kindling result in data set [1] (75 mg/kg i.p.) is listed as “prevented the acquisition of the full generalized kindled seizure”. In addition, the “seizure score at the conclusion of the drug- and stimulus-free period” value in data set [1] (75 mg/kg i.p. during kindling acquisition, Racine scale, vehicle 4.6±0.24) is given as 1.4±0.40. Besides, the “after-discharge (AD) duration vs vehicle” value in data set [1] (75 mg/kg i.p., kindling acquisition phase) is “No statistical difference between treatment groups”. For the same compound, the after-discharge duration reduced in data set [2] is on record as 86%. In data set [2] (n=9), the “rats exhibiting ataxia and sedation” value is reported as “Four of the nine”; the rats protected entry is “Eight out of nine”. Also, in data set [2] (from 73 sec), the “after-discharge duration after treatment” value is 10 s. Further, the “seizure score after treatment” value in data set [2] (reduced from a 5) came to 0.8. For the same compound, in the data set on CH3/HeJ mice (p.o., CH3/HeJ mice), the “doses at which effects were statistically significant vs vehicle” value is 12 mg/kg, 60 mg/kg, and 120 mg/kg; the “Immobility Emax % of C” value was 22.2±6.1 % of C; the “Mobility Emax % of C” value is reported as 95.6 % of C. In addition, the “Immobility Emax % of C” value in the data set on CH3/HeJ mice (p.o., CH3/HeJ mice, listed as Cmpd #8) is listed as 22.2 % of C. Further, the “immobility time and mobility time” value in the data set on CH3/HeJ mice (p.o., CH3/HeJ mice, 7-min testing session) is “decreased immobility time and increased mobility time”. Besides, in the data set with Wistar rats (12, 30 or 60 mg/kg i.p.), the “activity in the CMS model of depression” value was “inactive in the CMS model of depression”.

The ED50 is the midpoint of the dose-response relation.
